Reference: US20190192521A1, “Methods of Treating Arid1A-Mutated Cancers With HDAC6 Inhibitors and EZH2 Inhibitors” (The Wistar Institute of Anatomy and Biology, priority 2016, published 2019)
Where no end group is shown, it is not given here.

Legend:
[1] = test system: p53 target genes (BAX, PUMA, NOXA, CDKN1A) in ARID1A-mutated TOV21G cells; test: RNA-seq of p53 target genes; format: cell-based, human; settings: 312 nM
Text: RNA was extracted and utilized for next generation sequencing (RNA-seq). Expression of p53 target genes known to regulate apoptosis such as BAX, PUMA and NOXA, and known to regulate cell cycle arrest such as CDKN1A were not altered by HDAC6 inhibition in RNA-seq analysis.

[2] = test system: ovarian clear cell carcinoma cell lines with known ARID1A mutational status; test: colony formation assay, panel of ovarian clear cell carcinoma cell lines with or without ARID1A mutation; format: cell-based, human; settings: 12 days
Method: After 12 days culture, integrated density of colony formed by the indicated cells was quantified using NIH Image J software, and values were normalized to vehicle control. Data represent triplicates from independent experiments. Error bars represent S.E.M. The p-value was calculated via two-tailed t-test.
Indicated ovarian clear cell carcinoma cell lines with known ARID1A mutational status were treated with the indicated concentration of HDAC6 inhibitor CAY10603 or vehicle control in a colony formation assay. After 12 days culture, integrated density of colony formed by the indicated cells was quantified using NIH Image J software, and values were normalized to vehicle control. Data represent triplicates from independent experiments. Error bars represent S.E.M.
Colony formation assays were performed as follows. Cell lines were infected with lentivirus pLKO.1-shRNAs or pLKO.1-control with puromycin selection marker. Infected cells were selected with 1 μg/mL of puromycin for 72 hours and the selected cells were seeded in 12-well or 24-well plates. Cell medium was changed every three days with appropriate drug doses for 14 days or until control wells became confluent. Colonies were washed twice with PBS and fixed with 10% methanol and 10% acetic acid in distilled water. Fixed colonies were stained with 0.005% crystal violet. Integrated density was measured using NIH ImageJ software.

[3] = test system: ARID1A-mutated TOV21G and OVISE cells; test: apoptosis (Annexin V, cleaved caspase 3, cleaved PARP p85) in ARID1A-mutated cells; format: cell-based, human
Method: FIG. 10 illustrates the finding that HDAC6 inhibition induces apoptosis in ARID1A-inactivated cells. […] Cells were collected and stained for apoptotic markers Annexin V. Apoptotic cells were quantified. Error bars represent standard error of the mean. The p-value was calculated via a two-tailed t-test.
FIG. 11 illustrates the results of the experiments of FIG. 10, but examined for apoptotic markers cleaved caspase 3 and cleaved PARP p85 by immunoblot. GAPDH expression was used as a loading control.
Cells were collected, incubated with an Annexin V-FITC antibody and subjected to flow cytometry analysis. Annexin V-positive cells (apoptotic) were measured with FloJo software. Mean of three independent experiments with S.E.M.
FIG. 78 illustrates percent apoptosis based on Annexin V staining in ARID1A mutated TOV21G cells treated with 1.25 μM ACY1215, 20 μM pan-caspase inhibitor Q-VD-Oph, or a combination for 48 hrs.
FIG. 79 illustrates percent apoptosis based on Annexin V staining in ARID1A mutated TOV21G cells treated with 1.25 μM ACY1215 for 48 hrs with or without knockdown of caspase 3 or caspase 9.
For immunoblotting, protein was isolated as described in Bitler et al. Nat. Med. 2015, 21, 231-238. Briefly, protein was extracted with RIPA buffer (150 mM NaCl, 1% NP40, 0.5% sodium deoxycholate, 0.1% SDS, 50 mM Tris pH 8.0, and 1 mM PMSF). Protein was separated on a SDS-PAGE and transferred to PVDF membrane. For immunoblot of p53 post-translation modifications, cells were treated with a proteasome inhibitor MG132 (10 μM) to stabilize p53 protein.
Annexin V and mitochondria membrane potentials were measured as follows. Phosphatidylserine externalization was detected using an Annexin V staining kit (Life Technologies) following the manufacturer's instructions. To measure change in mitochondria membrane potential cells were treated with 200 nM of tetramethylrhodamine, ethyl ester (TMRE; Abcam) for 15 min at 37° C. Annexin V and TMRE-positive cells were detected using the LSR18 and analyzed with the FlowJo software module.

human HDAC6 = molecular target: T1, human HDAC6 (Homo sapiens, UniProt Q9UBN7); test: in vitro biochemical HDAC6 deacetylation assay (LC-MS)
T1 construct: made in house
T1 sequence (Q9UBN7 1-1215): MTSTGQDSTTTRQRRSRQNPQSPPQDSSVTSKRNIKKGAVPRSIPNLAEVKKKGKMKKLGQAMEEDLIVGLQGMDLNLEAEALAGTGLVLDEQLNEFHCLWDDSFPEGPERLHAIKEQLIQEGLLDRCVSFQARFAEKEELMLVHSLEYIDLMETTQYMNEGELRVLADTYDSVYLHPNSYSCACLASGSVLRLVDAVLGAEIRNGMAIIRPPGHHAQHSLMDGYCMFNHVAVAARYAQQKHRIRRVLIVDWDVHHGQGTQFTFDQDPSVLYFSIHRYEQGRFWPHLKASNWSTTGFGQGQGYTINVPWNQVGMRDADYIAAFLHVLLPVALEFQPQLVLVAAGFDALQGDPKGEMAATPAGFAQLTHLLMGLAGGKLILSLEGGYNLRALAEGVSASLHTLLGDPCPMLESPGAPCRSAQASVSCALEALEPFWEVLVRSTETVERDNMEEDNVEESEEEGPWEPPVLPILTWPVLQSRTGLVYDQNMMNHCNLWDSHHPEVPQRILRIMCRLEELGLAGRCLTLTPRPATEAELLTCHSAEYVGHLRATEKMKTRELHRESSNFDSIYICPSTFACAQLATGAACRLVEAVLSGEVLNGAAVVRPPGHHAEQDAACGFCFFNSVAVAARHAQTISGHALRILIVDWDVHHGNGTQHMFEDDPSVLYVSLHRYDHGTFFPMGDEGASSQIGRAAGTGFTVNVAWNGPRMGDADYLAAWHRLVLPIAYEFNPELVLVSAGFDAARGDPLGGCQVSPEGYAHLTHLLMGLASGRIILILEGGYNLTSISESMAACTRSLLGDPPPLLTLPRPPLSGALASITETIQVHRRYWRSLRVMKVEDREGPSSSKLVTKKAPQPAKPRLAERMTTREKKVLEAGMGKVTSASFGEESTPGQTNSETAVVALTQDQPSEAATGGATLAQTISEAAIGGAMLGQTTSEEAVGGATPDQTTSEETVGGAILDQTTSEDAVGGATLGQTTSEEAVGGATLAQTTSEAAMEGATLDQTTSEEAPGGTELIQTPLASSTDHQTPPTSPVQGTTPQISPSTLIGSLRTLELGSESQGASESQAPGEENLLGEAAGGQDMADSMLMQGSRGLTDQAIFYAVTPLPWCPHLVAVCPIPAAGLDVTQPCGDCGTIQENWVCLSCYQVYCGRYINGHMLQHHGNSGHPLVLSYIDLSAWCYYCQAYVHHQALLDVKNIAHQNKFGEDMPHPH
Method: Deacetylation reactions were detected by discontinuous liquid chromatography-mass spectrometry (LC-MS). […] All assays were performed in triplicates.
In vitro biochemical HDAC6 deacetylation assays were performed as follows. Activity assay with human HDAC6 was based on a discontinuous liquid chromatography-mass spectrometry (LC-MS) assay as reported in Hai and Christianson, 2016. Briefly, 0.05 μM of HDAC6 was incubated with 100 μM of substrate Ac-LHSGTAK(ac)SVT-COOH in HEPES buffer [20 mM HEPES (pH 7.5), 100 mM NaCl, 5 mM KCl, 1 mM MgCl2] for 20 min at room temperature, and the reaction was quenched by the addition of acetonitrile (equal volume to the reaction solution). […] The assay was run in the presence of 10 μM of HDAC6 specific inhibitor ACY-1215 as a negative control. All the assays were performed in triplicates. The peptide was custom synthesized by Genscript. The human HDAC6 construct was expressed and purified as described in Hai and Christianson, 2016.

CC(C)(C)OC(=O)Nc1ccc(-c2cc(C(=O)NCCCCCCC(=O)NO)no2)cc1 [CAY10603, tert-butyl 4-(3-((7-(hydroxyamino)-7-oxoheptyl)carbamoy)isoxazol-5-yl)phenylcarbamate]
expression of p53 target genes (BAX, PUMA, NOXA, CDKN1A) [1]: not altered
sensitivity of ARID1A-mutated cells compared with ARID1A wild-type cells [2]: more sensitive

c1cc(SSc2ccns2)sn1 [NU9056]
effect on apoptosis induced by ACY1215 ([3]; TIP60 inhibitor with ACY1215): suppressed apoptosis
p53K120Ac levels ([3]; TIP60 inhibitor with ACY1215): reduction of the p53K120Ac levels

CC(C)[C@H](NC(=O)c1ccc2ccccc2n1)C(=O)N[C@@H](CC(=O)O)C(=O)COc1c(F)cccc1F [Q-VD-Oph]
effect on apoptosis induced by ACY1215 ([3]; TOV21G, 20 μM Q-VD-Oph with 1.25 μM ACY1215, 48 hrs): significantly suppressed the apoptosis

Ac-LHSGTAK(Ac)SVT
specific activity of HDAC6 with this substrate (human HDAC6): 3.4±0.4 nmol product·nmol enzyme^−1·min^−1

Ala-Lys(Ac)-Ala-NH2
specific activity of HDAC6 with this substrate (human HDAC6): 10.5±0.5 nmol product·nmol enzyme^−1·min^−1
